Values after ≈ are worked out from the molar mass of the structure shown. Active and inactive are the calls of the source. The calls are words filed in the database; no cut-off is given here. Where a SMILES comes first, the peptide text is derived from it. [ ]: non-standard residue; d: D form. Orn = NCCC[C@H](N)C(=O)O
How the values were obtained:
Staphylococcus aureus [1] = experiment: Antibacterial activity against methicillin-resistant Staphylococcus aureus 2 assessed as inhibition of bacterial growth incubated for 18 to 24 hrs by broth microdilution assay; type: functional; details: time 18-24 hrs
Staphylococcus aureus [2] = experiment: Antibacterial activity against Staphylococcus aureus ATCC 43300 assessed as inhibition of bacterial growth incubated for 18 to 24 hrs by broth microdilution assay; type: functional; details: time 18-24 hrs
Escherichia coli = experiment: Antibacterial activity against Escherichia coli ATCC 25922 assessed as inhibition of bacterial growth incubated for 18 to 24 hrs by broth microdilution assay; type: functional; details: time 18-24 hrs
[3] = Cytotoxicity against human A549 cells assessed as reduction in cell viability incubated for 72 hrs by CCK-8 assay; type: toxicity, cell-based
Salmonella enteritidis = experiment: Antibacterial activity against Salmonella enteritidis SM012 assessed as inhibition of bacterial growth incubated for 18 to 24 hrs by broth microdilution assay; type: functional, Salmonella enterica subsp. enterica serovar Enteritidis; details: Salmonella enterica, time 18-24 hrs
Staphylococcus aureus [4] = experiment: Antibacterial activity against Staphylococcus aureus SH-27 assessed as inhibition of bacterial growth incubated for 18 to 24 hrs by broth microdilution assay; type: functional; details: time 18-24 hrs
Staphylococcus aureus [5] = experiment: Antibacterial activity against Staphylococcus aureus ATCC 29213 assessed as inhibition of bacterial growth incubated for 18 to 24 hrs by broth microdilution assay; type: functional; details: time 18-24 hrs
Staphylococcus aureus [6] = experiment: Antibacterial activity against Staphylococcus aureus ATCC 33591 assessed as inhibition of bacterial growth incubated for 18 to 24 hrs by broth microdilution assay; type: functional; details: time 18-24 hrs
[7] = Cytotoxicity against human L02 cells assessed as reduction in cell viability incubated for 72 hrs by CCK-8 assay; type: toxicity, cell-based
[8] = Hemolytic activity in rabbit RBC assessed as hemolysis incubated for 1 hr by microtiter plate method; type: toxicity, cell-based, Oryctolagus cuniculus, Erythrocyte; details: red blood cells
Staphylococcus aureus [9] = experiment: Antibacterial activity against Staphylococcus aureus ATCC 29213 assessed as cell wall loosening at 5 x MIC incubated for 2 hrs by transmission electron microscopy analysis; type: functional, organism-based
Staphylococcus aureus [10] = experiment: Antibacterial activity against Staphylococcus aureus ATCC 29213 assessed as blurred space in cytoplasm and cell wall at 5 x MIC incubated for 2 hrs by transmission electron microscopy analysis; type: functional, organism-based
Staphylococcus aureus [11] = experiment: Antibacterial activity against Staphylococcus aureus ATCC 29213 assessed as separation of plasma wall at 5 x MIC incubated for 2 hrs by transmission electron microscopy analysis; type: functional, organism-based
Staphylococcus aureus [12] = experiment: Antibacterial activity against Staphylococcus aureus ATCC 29213 assessed as appearance of cell round pellet at 5 x MIC incubated for 2 hrs by transmission electron microscopy analysis; type: functional, organism-based
Staphylococcus aureus [13] = experiment: Antibacterial activity against methicillin-resistant Staphylococcus aureus 2 assessed as cell wall loosening at 5 x MIC incubated for 2 hrs by transmission electron microscopy analysis; type: functional, organism-based
Staphylococcus aureus [14] = experiment: Antibacterial activity against methicillin-resistant Staphylococcus aureus 2 assessed as blurred space in cytoplasm and cell wall at 5 x MIC incubated for 2 hrs by transmission electron microscopy analysis; type: functional, organism-based
Staphylococcus aureus [15] = experiment: Antibacterial activity against methicillin-resistant Staphylococcus aureus 2 assessed as separation of plasma wall at 5 x MIC incubated for 2 hrs by transmission electron microscopy analysis; type: functional, organism-based
Staphylococcus aureus [16] = experiment: Antibacterial activity against methicillin-resistant Staphylococcus aureus 2 assessed as appearance of cell round pellet at 5 x MIC incubated for 2 hrs by transmission electron microscopy analysis; type: functional, organism-based
Cell membrane [17] = experiment: Induction of cell membrane disruption in Staphylococcus aureus ATCC 29213 assessed as increase in protein leakage at 5 x MIC incubated for 2 hrs by coomassie brilliant blue dye assay; type: subcellular
Cell membrane [18] = experiment: Induction of cell membrane disruption in methicillin-resistant Staphylococcus aureus 2 assessed as increase in protein leakage at 5 x MIC incubated for 2 hrs by coomassie brilliant blue dye assay; type: subcellular
Staphylococcus aureus [19] = experiment: Bactericidal activity against Staphylococcus aureus ATCC 29213 assessed as reduction in colony forming unit at 1 to 8 times MIC incubated for 18 to 24 hrs by time kill assay; type: functional, organism-based; details: time 18-24 hrs
Staphylococcus aureus [20] = experiment: Induction of drug resistance in Staphylococcus aureus ATCC 29213 assessed as fold increase in MIC measured after 20 passage; type: functional
Staphylococcus aureus [21] = experiment: Bactericidal activity against methicillin-resistant Staphylococcus aureus 2 assessed as reduction in colony forming unit at 1 to 8 times MIC incubated for 18 to 24 hrs by time kill assay; type: functional, organism-based; details: time 18-24 hrs
Staphylococcus aureus [22] = experiment: Bactericidal activity against Staphylococcus aureus ATCC 29213 assessed as reduction in colony forming unit at 4 times MIC measured after 4 hrs by time kill assay; type: functional
Staphylococcus aureus [23] = experiment: Bactericidal activity against methicillin-resistant Staphylococcus aureus 2 assessed as reduction in colony forming unit at 4 times MIC measured after 4 hrs by time kill assay; type: functional
Staphylococcus aureus [24] = experiment: Inhibition of biofilm formation in Staphylococcus aureus ATCC 29213 at 4 to 16 microg/ml incubated for 18 to 24 hrs by crystal violet staining based assay; type: functional, organism-based; details: dose 4-16 µg/ml, time 18-24 hrs
Staphylococcus aureus [25] = experiment: Inhibition of biofilm formation in methicillin-resistant Staphylococcus aureus 2 at 4 to 16 microg/ml incubated for 18 to 24 hrs by crystal violet staining based assay; type: functional, organism-based; details: dose 4-16 µg/ml, time 18-24 hrs
Staphylococcus aureus [26] = experiment: Inhibition of biofilm formation in Staphylococcus aureus ATCC 29213 at 1 times MIC incubated for 18 to 24 hrs by crystal violet staining based assay; type: functional; details: time 18-24 hrs
Staphylococcus aureus [27] = experiment: Inhibition of biofilm formation in methicillin-resistant Staphylococcus aureus 2 at 1 times MIC incubated for 18 to 24 hrs by crystal violet staining based assay; type: functional; details: time 18-24 hrs
Staphylococcus aureus [28] = experiment: Antibacterial activity Staphylococcus aureus ATCC 29213 infected BALB/c mouse assessed as decrease in volume of skin abscess at 50 to 100 mg/kg,iv measured on day 1 and 3 after infection; type: functional, organism-based; details: dose 50-100 mg/kg
Staphylococcus aureus [29] = experiment: Antibacterial activity Staphylococcus aureus ATCC 29213 infected BALB/c mouse assessed as reduction in bacterial burden at 50 to 100 mg/kg,iv measured on day 1 and 3 after infection; type: functional, organism-based; details: dose 50-100 mg/kg
Staphylococcus aureus [30] = experiment: Antibacterial activity Staphylococcus aureus ATCC 29213 infected BALB/c mouse assessed as decrease in degree of lesion at 50 to 100 mg/kg,iv measured on day 1 and 3 after infection by hematoxylin and eosin staining based assay; type: functional, organism-based; details: dose 50-100 mg/kg
Staphylococcus aureus [31] = experiment: Antibacterial activity Staphylococcus aureus ATCC 29213 infected BALB/c mouse assessed as increase in skin thickness at 50 to 100 mg/kg,iv measured on day 1 and 3 after infection by hematoxylin and eosin staining based assay; type: functional, organism-based; details: dose 50-100 mg/kg
Staphylococcus aureus [32] = experiment: Antibacterial activity Staphylococcus aureus ATCC 29213 infected BALB/c mouse assessed as IL-1beta cytokine level at 50 to 100 mg/kg,iv measured on day 1 and 3 after infection; type: functional, organism-based; details: dose 50-100 mg/kg
Staphylococcus aureus [33] = experiment: Antibacterial activity Staphylococcus aureus ATCC 29213 infected BALB/c mouse assessed as TNF-alpha cytokine level at 50 to 100 mg/kg,iv measured on day 1 and 3 after infection; type: functional, organism-based; details: dose 50-100 mg/kg
Staphylococcus aureus [34] = experiment: Antibacterial activity against Staphylococcus aureus ATCC 29213 assessed as appearance of circular vesicles at 5 x MIC incubated for 2 hrs by transmission electron microscopy analysis; type: functional, organism-based
Staphylococcus aureus [35] = experiment: Antibacterial activity against methicillin-resistant Staphylococcus aureus 2 assessed as appearance of circular vesicles at 5 x MIC incubated for 2 hrs by transmission electron microscopy analysis; type: functional, organism-based
Cell membrane [36] = experiment: Disruption of membrane integrity in Staphylococcus aureus ATCC 29213 assessed as cell membrane damage at 5 x MIC incubated for 2 hrs by propidium iodide staining based assay; type: subcellular
Cell membrane [37] = experiment: Disruption of membrane integrity in Staphylococcus aureus ATCC 29213 assessed as cell membrane damage at 5 x MIC incubated for 2 hrs by DAPI staining based assay
Cell membrane [38] = experiment: Induction of cell membrane permeability in Staphylococcus aureus ATCC 29213 at 5 x MIC incubated for 2 hrs by TO-PRO-3 reagent flow cytometry assay; type: subcellular
Cell membrane [39] = experiment: Induction of cell membrane permeability in methicillin-resistant Staphylococcus aureus 2 at 5 x MIC incubated for 2 hrs by TO-PRO-3 reagent flow cytometry assay; type: subcellular
A549 = experiment: Cytotoxicity against human A549 cells assessed as reduction in cell viability at 25 ug/ml incubated for 72 hrs by CCK-8 assay; type: toxicity, cell-based; details: a549, 72 h, dose 25 µg/ml
Cell membrane [40] = experiment: Induction of membrane depolarization in Staphylococcus aureus ATCC 29213 at 5 x MIC incubated for 2 hrs by DiOC23 dye based based flow cytometry; type: subcellular
Cell membrane [41] = experiment: Induction of membrane depolarization in methicillin-resistant Staphylococcus aureus 2 at 5 x MIC incubated for 2 hrs by DiOC23 dye based based flow cytometry; type: subcellular
Cell membrane [42] = experiment: Induction of cell membrane disruption in Staphylococcus aureus ATCC 29213 assessed as increase in intracellular vanomycin content at 10 x MIC incubated for 2 hrs by UPLC analysis

COc1c(OC(C)=O)cc2oc3cc(O)c(CC=C(C)C)c(O)c3c(=O)c2c1CC=C(C)C
MIC (Staphylococcus aureus [1]): 2 µg/mL (≈ 4.42 µM)
MIC (Staphylococcus aureus [2]): 2 µg/mL (≈ 4.42 µM)
MIC (Escherichia coli): > 256 µg/mL
IC50 at 72 h [3]: 17.5 µg/mL (≈ 38.7 µM)
MIC (Salmonella enteritidis): > 256 µg/mL
MIC (Staphylococcus aureus [4]): 2 µg/mL (≈ 4.42 µM)
MIC (Staphylococcus aureus [5]): 4 µg/mL (≈ 8.84 µM)
MIC (Staphylococcus aureus [6]): 2 µg/mL (≈ 4.42 µM)
IC50 at 72 h [7]: 13.2 µg/mL (≈ 29.2 µM)
HC50 at 1 h [8]: > 500 µg/mL

CC(C)C[C@@H]1NC(=O)[C@H](CCCN)NC(=O)[C@H](C(C)C)NC(=O)[C@@H]2CCCN2C(=O)[C@@H](Cc2ccccc2)NC(=O)[C@H](CC(C)C)NC(=O)[C@H](CCCN)NC(=O)[C@H](C(C)C)NC(=O)[C@@H]2CCCN2C(=O)[C@@H](Cc2ccccc2)NC1=O (cyclo(V[Orn]L[dF]PV[Orn]L[dF]P))
Activity (Staphylococcus aureus [9]): Active
Activity (Staphylococcus aureus [10]): Active
Activity (Staphylococcus aureus [11]): Active
Activity (Staphylococcus aureus [12]): Active
Activity (Staphylococcus aureus [13]): Active
Activity (Staphylococcus aureus [14]): Active
Activity (Staphylococcus aureus [15]): Active
Activity (Staphylococcus aureus [16]): Active
Activity (Cell membrane [17]): Active
Activity (Cell membrane [18]): Active

COc1c(O)cc2oc3cc(O)c(CC=C(C)C)c(OC(C)=O)c3c(=O)c2c1CC=C(C)C
MIC (Staphylococcus aureus [1]): 4 µg/mL (≈ 8.84 µM)
MIC (Staphylococcus aureus [2]): 1 µg/mL (≈ 2.21 µM)
MIC (Escherichia coli): > 256 µg/mL
MIC (Salmonella enteritidis): > 256 µg/mL
MIC (Staphylococcus aureus [4]): 2 µg/mL (≈ 4.42 µM)
MIC (Staphylococcus aureus [5]): 4 µg/mL (≈ 8.84 µM)
MIC (Staphylococcus aureus [6]): 1 µg/mL (≈ 2.21 µM)
IC50 at 72 h [7]: 22.1 µg/mL (≈ 48.8 µM)
HC50 at 1 h [8]: 6.3 µg/mL
Activity (Staphylococcus aureus [19]): Active
Activity (Staphylococcus aureus [20]): inactive
Activity (Staphylococcus aureus [21]): Active
Activity (Staphylococcus aureus [22]): 4.57 log10CFU
Activity (Staphylococcus aureus [23]): 3.72 log10CFU
inhibition (Staphylococcus aureus [24]): Dose-Dependent Effect
inhibition (Staphylococcus aureus [25]): Dose-Dependent Effect
inhibition (INH) (Staphylococcus aureus [26]): 90%
inhibition (INH) (Staphylococcus aureus [27]): 98%
Activity (Staphylococcus aureus [28]): Dose-Dependent Effect
Activity (Staphylococcus aureus [29]): Active
Activity (Staphylococcus aureus [30]): Active
Activity (Staphylococcus aureus [31]): Active
Activity (Staphylococcus aureus [32]): Active
Activity (Staphylococcus aureus [33]): Active
Activity (Staphylococcus aureus [9]): Active
Activity (Staphylococcus aureus [10]): Active
Activity (Staphylococcus aureus [11]): Active
Activity (Staphylococcus aureus [34]): Active
Activity (Staphylococcus aureus [13]): Active
Activity (Staphylococcus aureus [14]): Active
Activity (Staphylococcus aureus [15]): Active
Activity (Staphylococcus aureus [35]): Active
Activity (Cell membrane [36]): Active
Activity (Cell membrane [37]): Active
Activity (Cell membrane [38]): 100%
Activity (Cell membrane [39]): 100%
Activity (A549): Non-Toxic
Activity (Cell membrane [40]): Active
Activity (Cell membrane [41]): Active
Activity (Cell membrane [17]): Active
Activity (Cell membrane [18]): Active
Activity (Cell membrane [42]): Active

— ChEMBL document CHEMBL5252628, “Novel xanthone antibacterials: Semi-synthesis, biological evaluation, and the action mechanisms” (Bioorg Med Chem, 2023)
